Drawing on US20090069565A1, “NEW INDOLE DERIVATIVES AS FACTOR XA INHIBITORS” (priority 2001, published 2009), this text covers Ki for 25 compounds.

pKi: −log10 of the molar value.

Sequence of human factor Xa (P00742 235-488 limits assumed): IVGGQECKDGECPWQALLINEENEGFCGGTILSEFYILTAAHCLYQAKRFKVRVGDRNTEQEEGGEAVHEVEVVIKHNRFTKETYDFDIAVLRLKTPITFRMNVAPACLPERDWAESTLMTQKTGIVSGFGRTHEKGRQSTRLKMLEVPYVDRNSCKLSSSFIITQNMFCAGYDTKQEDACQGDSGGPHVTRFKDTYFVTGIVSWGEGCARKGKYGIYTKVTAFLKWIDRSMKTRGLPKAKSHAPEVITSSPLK
Sequence of human factor Xa (P00742 41-179 partner limits assumed): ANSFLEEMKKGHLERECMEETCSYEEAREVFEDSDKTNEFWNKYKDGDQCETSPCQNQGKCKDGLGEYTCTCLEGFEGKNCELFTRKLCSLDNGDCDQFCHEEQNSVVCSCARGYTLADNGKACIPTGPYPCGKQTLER

The first experiment concerns the target human factor Xa (Homo sapiens, UniProt P00742). The experiment can be described thus: Factor Xa assay (chromogenic, substrate S-2765).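 Also: purified enzyme preincubated with inhibitor for 10 min before substrate addition, final reaction volume 100 µl.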 Format: biochemical.
Settings: not given
As to `CC(C)N1CCC(NC(=O)c2cc3cccc(Cl)c3n2Cc2cc(-c3ccc(Cl)s3)on2)CC1` [Example 20], the pKi (commonly the Ki on a negative log10 scale, so that one unit is a factor of ten) was 8.15.

The same experiment, now with this note: inhibition constant for factor Xa; purified enzyme 0.5 nM, substrate S-2765 140 μM, 25° C., pH 7.8; Ki=IC50/{1+(substrate concentration/Km)}; read-out: Ki(FXa).
Regarding `CC(C)N1CCC(NC(=O)c2cc3cc(S(C)(=O)=O)ccc3n2Cc2cc(-c3ccc(Cl)s3)on2)CC1` [Example 2], the pKi was 7.70. Same read-out and setting: in the case of `CC(C)N1CCC(NC(=O)c2cc3cc([N+](=O)[O-])ccc3n2Cc2cc(-c3ccc(Cl)s3)on2)CC1` [Example 3] it was 9.00. Same read-out and setting: in the case of `CC(C)N1CCC(NC(=O)c2cc3cc(OCc4ccccc4)ccc3n2Cc2cc(-c3ccc(Cl)s3)on2)CC1` [Example 4] it was 6.08. Same read-out and setting: as for `CC(C)N1CCC(NC(=O)c2cc3cc(Cl)ccc3n2Cc2cc(-c3ccc(Cl)s3)on2)CC1` [Example 5], the figure is 8.30; as for `Cc1ccc2c(c1)cc(C(=O)NC1CCN(C(C)C)CC1)n2Cc1cc(-c2ccc(Cl)s2)on1` [Example 8], 8.05.

For `CC(C)N1CCC(NC(=O)c2cc3cccc([N+](=O)[O-])c3n2Cc2cc(-c3ccc(Cl)s3)on2)CC1` [Example 11], the pKi is 10.00. Still for that read-out and setting: in the case of `CC(C)N1CCC(NC(=O)c2c(-c3ccccc3)c3ccccc3n2Cc2cc(-c3ccc(Cl)s3)on2)CC1` [Example 16] it was 7.26. The same measure, in the same setting: in the case of `CC(C)N1CCC(NC(=O)c2cc3ccc(Cl)cc3n2Cc2cc(-c3ccc(Cl)s3)on2)CC1` [Example 21] it was 8.15. Still for that read-out and setting: in the case of `CC(C)N1CCC(NC(=O)c2cc3cc(F)ccc3n2Cc2cc(-c3ccc(Cl)s3)on2)CC1` [Example 23] it was 8.52.

The experiment is the same for the next values; noted with them: read-out: Ki(FXa).
Turning to `COc1ccc2c(c1)cc(C(=O)NC1CCN(C(C)C)CC1)n2Cc1cc(-c2ccc(Cl)s2)on1` [Example 6], the pKi is 7.89. As for `COc1ccc2cc(C(=O)NC3CCN(C(C)C)CC3)n(Cc3cc(-c4ccc(Cl)s4)on3)c2c1` [Example 7], the pKi was 8.40.

Consider `COc1cc(OC)c2cc(C(=O)NC3CCN(C(C)C)CC3)n(Cc3cc(-c4ccc(Cl)s4)on3)c2c1` [Example 9], for which the pKi was 8.52. As to `COc1cc2cc(C(=O)NC3CCN(C(C)C)CC3)n(Cc3cc(-c4ccc(Cl)s4)on3)c2cc1OC` [Example 10], the pKi is 6.74. On the same count and under the same terms, as for `CC(C)N1CCC(NC(=O)c2cc3cc(OC(F)(F)F)ccc3n2Cc2cc(-c3ccc(Cl)s3)on2)CC1` [Example 12], the figure is 6.94. Same read-out and setting: in the case of `CC(C)N1CCC(NC(=O)c2cc3cccc(NC(=O)C(C)(C)C)c3n2Cc2cc(-c3ccc(Cl)s3)on2)CC1` [Example 14] it was 5.76; in that of `COc1cccc2c1cc(C(=O)NC1CCN(C(C)C)CC1)n2Cc1cc(-c2ccc(Cl)s2)on1` [Example 15], 8.46; in that of `COc1cc2cc(C(=O)NC3CCN(C(C)C)CC3)n(Cc3cc(-c4ccc(Cl)s4)on3)c2cc1O` [Example 17], 5.71. Turning to `CC(C)N1CCC(NC(=O)c2cc3c(F)cc(F)cc3n2Cc2cc(-c3ccc(Cl)s3)on2)CC1` [Example 18], the pKi is 7.80.

Take `CC(C)N1CCC(NC(=O)c2cc3c(OCc4ccccc4)cccc3n2Cc2cc(-c3ccc(Cl)s3)on2)CC1` [Example 19]: the pKi was 7.30. On the same count and under the same terms, in the case of `CCc1ccc2c(c1)cc(C(=O)NC1CCN(C(C)C)CC1)n2Cc1cc(-c2ccc(Cl)s2)on1` [Example 22] it was 6.66.

For the compound `CC(C)N1CCC(NC(=O)c2c(-c3ccccc3)c3cc([N+](=O)[O-])ccc3n2Cc2cc(-c3ccc(Cl)s3)on2)CC1` [Example 24], the pKi is 6.88. On the same count and under the same terms, as for `CC(C)N1CCC(NC(=O)c2c(-c3ccccc3)c3cc(Cl)ccc3n2Cc2cc(-c3ccc(Cl)s3)on2)CC1` [Example 25], the figure is 6.47. `CC(C)N1CCC(NC(=O)c2cc3cc(F)cc(F)c3n2Cc2cc(-c3ccc(Cl)s3)on2)CC1` [Example 26]: the pKi was 10.00.

Regarding `CC(C)N1CCC(NC(=O)c2cc3cc([N+](=O)[O-])cc([N+](=O)[O-])c3n2Cc2cc(-c3ccc(Cl)s3)on2)CC1` [Example 27], the pKi is 9.70.
